Experimental data as given in patent US10995358B2, “Rapid antibiotic susceptibility test using membrane fluorescence staining and spectral intensity ratio improved by flow cytometry dead to live population ratio” (POCARED Diagnostics LTD., priority 2017, dated 2021).

How the values were obtained:
Assay type in all cases: cell-based
[1] = tested on: 31 positive blood cultures (E. coli, K. pneumonia, A. baummanii, P. mirabilis, E. cloacae, Aeromonass spp., K. oxytoca); test: Macro dilution reference method, positive blood cultures (visual growth after 16-20 hours); details: 31 strains from positive blood cultures
Description: 31 positive blood cultures were obtained from Sheba Medical Center (Ramat-Gan, Israel) and tested for antimicrobial susceptibility with gentamicin and ampicillin antibiotics (Sigma-Aldrich, USA). A total of 62 positive blood samples-antibiotics combinations were tested. • a) Positive blood samples were received from Sheba Medical Center, 2 ml of each sample were centrifuged for 15 min at 24×g and Supernatants were diluted 1:1000 with Cation-Adjusted Mueller Hinton Broth (CAMHB). • b) Antimicrobial stock solutions were prepared according to CLSI recommendations, and were diluted in CAMHB, to a concentration which was 2 fold higher from the highest concentration recommended for each antimicrobial combination (“Class II Special Controls Guidance Document: Antimicrobial Susceptibility Test (AST) Systems”, Aug. 28, 2009, FDA). • c) For each sample/antimicrobial combination, a set of tubes was prepared for which 1 ml of CAMHB medium was added, except for the first tube. • d) To each first tube of the set, 2 ml from the antimicrobial stock solution (b) was dispensed. • e) From the first tube a serial dilutions of 2 folds were prepared by transferring 1 ml of the solution to the next tube until the lowest required concentration by CLSI. 1 ml was discarded from the last tube in each set of tubes. • f) To each tube in the set, 1 ml of bacterial sample solution (a) was added. • g) For each serial dilutions set, two controls were added. As a negative control, a tube with 2 ml of CAMHB. As a positive control, a tube with bacterial sample solution (a) without antimicrobial agent. • h) All tubes were incubated at 37° C. • i) 2-4 hours from incubation initiation, 200 μl from each tube were transferred into a fresh tube, dyed with 2 μl of Synaptogreen or FM 1-43 (Sigma-Aldrich; Molecular Probes, respectively) and measured by a flow cytometer. The rest of the sample was further incubated for 16-20 hours and then was visually evaluated for growth.
62 samples (31 positive blood cultures and 2 antibiotics combination) were analyzed in triplicates. Each sample was measured by the flow cytometer and the MIC was calculated using the spectral intensity ratio (SIR) calculation and step function estimation. The bacteria identified within the samples were; E. coli (15 samples), K. pneumonia (6 samples), A. baummanii (4 samples), P. mirabilis (2 samples), E. cloacae (2 samples), Aeromonass spp. (1 sample), and K. oxytoca (1 sample).
Tables 1 and 2 present the results of the positive blood sample experiment using the macro dilution as the reference method. […] There are no errors as defined by “Class II Special Controls Guidance Document: Antimicrobial Susceptibility Test (AST) Systems,” Aug. 28, 2009, FDA.

[2] = tested on: 30 clinical isolates of E. coli, K. pneumoniae, E. cloacae, P. mirabilis, and C. freundii; test: Macro dilution reference method, clinical isolates (visual growth after 16-20 hours)
Description: A total of 90 isolates-antibiotics combinations were tested. • a) All strains were cultured onto 5% sheep blood agar (Hylabs, Israel), following overnight incubation, colonies were harvested and suspended in Phosphate Buffer Saline (PBS, Sigma-Aldrich). […] 1 ml was discarded from the last tube in each set of tubes. • g) For each serial dilutions set, two controls were added. As a negative control, a tube with 2 ml of CAMHB. […] The rest of the sample was further incubated for 16-20 hours and then was visually evaluated for growth.

[3] = tested on: K. pneumonia; test: Rapid AST/MIC from positive blood culture by FM 1-43 staining, flow cytometry and spectral intensity ratio (SIR); details: 2-4 hours antibiotic exposure
Description: (§1) In general, the method includes; blood culture centrifugation, bacterial antimicrobial exposure for 2 to 4 hours, bacteria staining with a single fluorescence dye followed by a flow cytometric measurement, and mathematical analysis.
(§2) 31 positive blood cultures were obtained from Sheba Medical Center (Ramat-Gan, Israel) and tested for antimicrobial susceptibility with gentamicin and ampicillin antibiotics (Sigma-Aldrich, USA). […] As a positive control, a tube with bacterial sample solution (a) without antimicrobial agent. • h) All tubes were incubated at 37° C. • i) 2-4 hours from incubation initiation, 200 μl from each tube were transferred into a fresh tube, dyed with 2 μl of Synaptogreen or FM 1-43 (Sigma-Aldrich; Molecular Probes, respectively) and measured by a flow cytometer. The rest of the sample was further incubated for 16-20 hours and then was visually evaluated for growth.
(§3) In order to quantify the influence of a certain antimicrobial exposure we define the spectral intensity ratio (SIR) as follows: […]
(§4) The MIC is calculated by plotting the spectral intensity ratio (SIR) as a function of the antimicrobial concentration and approximating it to a step function in the form of […]

[4] = tested on: E. coli; test: Rapid AST from positive blood culture by FM 1-43 staining, flow cytometry and SIR; details: positive blood culture strain, 2-4 hours antibiotic exposure
Description: as §1, §2, §3, §4

[5] = tested on: E. coli; test: Rapid AST/MIC from clinical isolates by FM 1-43 staining, flow cytometry and SIR; details: clinical isolate, 2-4 hours antibiotic treatment
Description: (§5) Our method includes bacterial antimicrobial treatment for 2 to 4 hours, bacteria staining with a single fluorescence dye followed by a flow cytometric measurement, and mathematical analysis. The following paragraphs describe the method in details.
(§6) A total of 90 isolates-antibiotics combinations were tested. • a) All strains were cultured onto 5% sheep blood agar (Hylabs, Israel), following overnight incubation, colonies were harvested and suspended in Phosphate Buffer Saline (PBS, Sigma-Aldrich). […] The rest of the sample was further incubated for 16-20 hours and then was visually evaluated for growth.
(§7) In order to quantify the influence of a certain antimicrobial treatment, we define the spectral intensity ratio (SIR) as follows: […]
(§8) The MIC is calculated by plotting the spectral intensity ratio (SIR) as a function of the antimicrobial concentration and approximating it to a step function in the form of
(§9) Where a, b, and c are parameters and erf is the error function. The parameters are used to approximate the measured SIR to a step function; a is a scaling parameter, b determines the step slope, and c is the MIC value. […]

[6] = tested on: E. coli; test: Flow cytometry SIR/SDL dead/live analysis of FM1-43 stained bacteria under Gentamycin exposure; parameters: key to SIR: SIR = ratio of mean FL-3 (610 nm) to FL-1 (530 nm) fluorescence; details: for Dead % of This Plot / Live % of This Plot / SDL SIR * D/L / SIR: 120 minutes
Description: In this Example, E. coli bacteria samples were incubated with Gentamycin in series dilution from 0 to 32 μgr/ml for 120 minutes. Post incubation the samples were stained with the dye FM1-43 and immediately measured by flow cytometry analysis on light scatter analysis for gating the bacteria and with fluorescence filters: λ1=530/30 and λ2=616/16 nm to analyze the SIR. Moreover gating of the Dead and live bacteria were determined.
From such instant flow-cytometry analysis the SIR and SDL values are evaluated. While performing the same analysis over the whole antibiotic concentrations dilution series the SIR and SDL values were extracted to the concentration series, the data is summarized in Table 5. In Table 5, mean FL1-H and FL3-H is the average of the individual points in the bacteria gated population, i.e. of all measured bacteria. In other words, Fl-1 and FL-3 are merely the fluorescence intensity of each event (bacteria) per a certain fluorescence filter. By referring to FL-1 or FL-3 this means that the mean (average) values of all the events is calculated in the dot plot. FL-1 it is at 530 (±15) nm and FL-3 is at 610 (±10) nm. SIR, is the ratio of FL-3/FL-1. […] So, in order to obtain SIR all that is needed are the FL-3 and FL-1 mean values of the bacterial population in the dot plot. […] By using a predetermined gates, the number of dead and live bacteria can be counted, and then the ratio of dead to live can be calculated and multiplied by the SIR to obtain SDL. The gates are combination of FL-1 and FL-3 and predetermined by control live sample. Plotting SIR, SDL, and DL versus antibiotic concentration is represented in FIG. 15 as (labeled as “SIR”, “SDL”, and “DL”). In FIG. 15, SIR, SDL, and DL are all normalized to the maximum value in the series (column)/dataset and then to 100.
From the data, we can determine the MIC by approximating the MIC as a function of antimicrobial concentration to an error function (FIG. 16) of the following type;
The MIC is the value of the parameter c or a function of it. Specifically, the MIC gets the value of “c”. The value of “c” is the middle of the step in a regular step function of where the step function equals to zero when its values are normalized between −1 to 1.

[7] = tested on: E. coli; test: Micro dilution susceptibility test performed in parallel; details: after 12 hours of incubation
[8] = tested on: C. freundii; test: Rapid AST from clinical isolates by FM 1-43 staining, flow cytometry and SIR; details: clinical isolate, up to 32 μg/ml
Description: as §5, §6, §7, §8, §9

[9] = 120 minutes incubation, FIG. 17A
[10] = 120 minutes incubation, FIG. 17B
[11] = Gentamycin 1 microg/ml (sub-MIC), listed as Gentamycin
[12] = Gentamycin 1 microg/ml (sub-MIC), listed as gentamycin
[13] = Gentamycin 8 microg/ml (over-MIC), listed as Gentamycin
[14] = Gentamycin 8 microg/ml (over-MIC), listed as gentamycin

**Q.** For `CC1(C)S[C@@H]2[C@H](NC(=O)[C@H](N)c3ccccc3)C(=O)N2[C@H]1C(=O)O` [Ampicillin, ampicillin], which “Reference Method Susceptibilities I (number of strains)” value [1] is on record?
**A.** 0

**Q.** And the “Reference Method Susceptibilities R (number of strains)” value [1]?
**A.** 26

**Q.** What about the “Reference Method Susceptibilities S (number of strains)” value [1] of the same molecule?
**A.** 5

**Q.** What about the “Reference Method Susceptibilities I (number of strains)” value [2] of the same molecule?
**A.** 5

**Q.** What about the “Reference Method Susceptibilities R (number of strains)” value [2] of the same molecule?
**A.** 9

**Q.** And the “Reference Method Susceptibilities S (number of strains)” value [2]?
**A.** 16

**Q.** What about the MIC ([3]; Klebsiella pneumoniae, read-out: MIC (SIR approximated to a step function)) of the same molecule?
**A.** 4 µg/mL

**Q.** What about the “susceptibility by SIR method” value [4] of the same molecule?
**A.** resistant

**Q.** What does the source list for gentamicin?
**A.** Reference Method Susceptibilities I (number of strains) [1]: 0; Reference Method Susceptibilities R (number of strains) [1]: 10; Reference Method Susceptibilities S (number of strains) [1]: 21; Reference Method Susceptibilities I (number of strains) [2]: 4; Reference Method Susceptibilities R (number of strains) [2]: 5; Reference Method Susceptibilities S (number of strains) [2]: 21; MIC (SIR approximated to a step function) [5]: 2 µg/mL; MIC from SIR error function fit (c rounded up to power of 2) [6, 9]: 8 μgr/ml; value of c, error function fit of measured SIR [6, 9]: 4.63 μgr/ml; MIC from SDL error function fit (c rounded up to power of 2) [6, 10]: 8 μgr/ml; value of c, error function fit of measured SDL [6, 10]: 5.38 μgr/ml; Dead % of This Plot ([6]; Gentamycin 0.25 microg/ml): 2.07%; Live % of This Plot ([6]; Gentamycin 0.25 microg/ml): 97.89%; SDL SIR * D/L ([6]; Gentamycin 0.25 microg/ml): 0.026; SIR ([6]; Gentamycin 0.25 microg/ml): 1.223; Dead % of This Plot ([6]; Gentamycin 0.5 microg/ml): 2.34%; Live % of This Plot ([6]; Gentamycin 0.5 microg/ml): 97.65%; SDL SIR * D/L ([6]; Gentamycin 0.5 microg/ml): 0.030; SIR ([6]; Gentamycin 0.5 microg/ml): 1.238; Dead % of This Plot [6, 11]: 4.64%; Live % of This Plot [6, 11]: 95.29%; Dead % of This Plot [6, 12]: 4.6%; Live % of This Plot [6, 12]: 95.2%; SDL SIR * D/L ([6]; Gentamycin 1 microg/ml): 0.070; SIR ([6]; Gentamycin 1 microg/ml): 1.437; Dead % of This Plot ([6]; Gentamycin 2 microg/ml): 6.46%; Live % of This Plot ([6]; Gentamycin 2 microg/ml): 93.52%; SDL SIR * D/L ([6]; Gentamycin 2 microg/ml): 0.099; SIR ([6]; Gentamycin 2 microg/ml): 1.426; Dead % of This Plot ([6]; Gentamycin 4 microg/ml): 9.86%; Live % of This Plot ([6]; Gentamycin 4 microg/ml): 90.09%; SDL SIR * D/L ([6]; Gentamycin 4 microg/ml): 0.188; SIR ([6]; Gentamycin 4 microg/ml): 1.718; Dead % of This Plot [6, 13]: 18.68%; Live % of This Plot [6, 13]: 81.28%; Dead % of This Plot [6, 14]: 18%; Live % of This Plot [6, 14]: 81%; SDL SIR * D/L ([6]; Gentamycin 8 microg/ml): 0.492; SIR ([6]; Gentamycin 8 microg/ml): 2.141; Dead % of This Plot ([6]; Gentamycin 16 microg/ml): 27.28%; Live % of This Plot ([6]; Gentamycin 16 microg/ml): 72.67%; SDL SIR * D/L ([6]; Gentamycin 16 microg/ml): 0.893; SIR ([6]; Gentamycin 16 microg/ml): 2.379; Dead % of This Plot ([6]; Gentamycin 32 microg/ml): 21.03%; Live % of This Plot ([6]; Gentamycin 32 microg/ml): 78.95%; SDL SIR * D/L ([6]; Gentamycin 32 microg/ml): 0.622; SIR ([6]; Gentamycin 32 microg/ml): 2.336; MIC (SIR approximated to a step function) [3]: 1 µg/mL; MIC, micro dilution susceptibility test [7]: 8 μgr/ml; susceptibility by SIR method [8]: resistant
